In US7713960B2, “Inhibition of the Raf/Mek/P-Erk pathway for treating cancer” (University of South Florida, priority 2005, dated 2010):

Key:
[1] = tested on: Rap-1; assay: Rap-1 activation assay, ACHN cells; assay type: cell-based, human; settings: 10 μM, 1 hour
Method: The effect of B2AR stimulation on Rap1 was investigated using the following methods: A Rap-1 activation assay kit (Upstate, Temecula, Calif.) was used according to protocol to determine if stimulation of the B2AR by ARA-211, and subsequent downstream signaling resulting in inhibition of P-Erk 1/2, is mediated by activation of Rap-1 directly by the Rap-1 guanine nucleotide exchange factor Epac. […] Cells were incubated with drugs for 1 hour unless noted otherwise. Cells were then lysed, the positive control lysate was incubated with 10 mM EDTA and 100 μM GTPγS and incubated for 30 minutes to load GTP onto Rap-1. Lysates from all samples were then incubated with 25 μg GST-RalGDS-Rap-1 binding domain beads for 45 minutes, washed with assay buffer 3×, resuspended in 40 μl of 2×Laemmli sample buffer and boiled for 5 minutes. Samples were resolved by SDS-PAGE electrophoresis, transferred to nitrocellulose, blotted overnight with 1 μ/ml polyclonal anti-Rap-1, and visualized by chemiluminescence.

[2] = tested on: P-Erk 1/2; assay: P-Erk 1/2 levels (Western blotting), MDA-MB-231; assay type: cell-based, human; settings: MDA-MB-231; with ARA-211
Method: Western Blotting—Treated cell samples were lysed in 30 mM HEPES, 10 mM NaCl, 5 mM MgCl2, 25 mM NaF, 1 mM EGTA, 1% Triton-X-100, 10% Glycerol, 2 mM Sodium orthovanidate, 10 μg/mL aprotinin, 10 μg/mL soybean trypsin inhibitor, 25 μg/mL leupeptin, 2 mM phenylmethylsulfonylfluoride (PMSF), 6.4 mg/mL p-nitrophenylphosphate for 30 minutes at 4° C., and proteins run on SDS-PAGE gels then transferred to nitrocellulose membranes. Membranes were blocked in either 5% milk in PBS, pH 7.4, containing 0.1% Tween-20 (PBS-T) or 1% BSA in TBS, pH 7.5, containing 0.1% Tween-20 (TBS-T). Phospho-STAT3 and phospho-AKT antibodies were diluted in 1% BSA in TBS-T while phospho-c-Raf, phospho-Mek, and phospho-p44/p42 MAPK antibodies (Cell Signaling) were diluted in 5% milk in PBS-T for either 1 hour at room temperature or overnight at 4° C. HRP-conjugated secondary antibodies (Jackson ImmunoResearch, West Grove, Pa.) were diluted in 5% milk in PBS-T or TBS-T at a 1:1000 dilution for one hour at room temperature. Western blots results were visualized using enhanced chemiluminescence. Stripping of the membranes for reblotting was done using stripping buffer (62.5 mM Tris pH 7.6, 2% SDS, 0.7% 2-mercaptoethanol) at 50° C. for 30 minutes.

[3] = tested on: MDA-MB-231 cells; assay: Alamar Blue proliferation assay, MDA-MB-231; assay type: cell-based, human; settings: MDA-MB-231; with ARA-211
Method: Cell Lines and Transfections—All cell lines used were obtained from American Type Tissue Collection (ATCC), (Manassas, Va.), or from the DCTD Tumor Repository, (Frederick, Md.). Propagation was carried out according to ATCC protocols. Propagation media was obtained from Invitrogen Corporation (Carlsbad, Calif.). DNA transfections were carried out using TransIT-LT1 transfection reagent (Takara Mirus, Madison, Wis.) according to the manufacturer's protocol. Briefly, 4×10^5 MDA-MB-231 cells were grown to approximately 70% confluency in medium supplemented with 10% FBS (Atlanta Biologicals, Atlanta, Ga.) in the absence of antibiotics. For transfection, LT1 was pre-incubated in 200 μl per transfection in Opti-MEM (Invitrogen) for 20 minutes prior to addition of plasmid. […]
Alamar Blue proliferation assay—For proliferation assays using exogenous constitutively activated MEK or the B2AR antagonist ICI-118.551, Alamar Blue metabolism assay used to determine cell viability according to the manufacturers protocol (Biosource, Camarillo, Calif.). […] Media/Alamar Blue was removed from the cells and aliquoted into 96 well plates (100 μl per well) and fluorescence read on a Wallac Victor 2 plate reader at excitation 540 nm, and emission 615 nm.

[4] = target: T1, Mek-1 (Homo sapiens, UniProt Q02750); assay: In vitro kinase assay, Mek-1 immunoprecipitated from MDA-MB-231 cells; assay type: biochemical; settings: immunoprecipitated kinase treated in vitro, 10 μM
T1 construct: c-Raf-1 and Mek-1, immunoprecipitated from MDA-MB-231 cells; endogenous in cells; host or cells: MDA-MB-231
T1 sequence (Q02750 whole entry): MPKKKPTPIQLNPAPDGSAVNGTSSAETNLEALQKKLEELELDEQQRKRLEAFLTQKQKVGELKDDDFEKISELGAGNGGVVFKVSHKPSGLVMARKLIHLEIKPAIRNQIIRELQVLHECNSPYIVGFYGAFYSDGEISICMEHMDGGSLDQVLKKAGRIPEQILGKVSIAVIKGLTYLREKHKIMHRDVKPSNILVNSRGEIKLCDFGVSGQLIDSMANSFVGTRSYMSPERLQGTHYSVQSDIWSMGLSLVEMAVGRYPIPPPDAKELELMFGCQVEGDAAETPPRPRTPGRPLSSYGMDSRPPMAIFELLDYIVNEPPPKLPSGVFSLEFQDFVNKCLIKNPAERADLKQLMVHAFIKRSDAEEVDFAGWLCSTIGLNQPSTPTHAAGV
Method: In Vitro Kinase Assays—MDA-MB-231 cells (2×10^6) were lysed for 30 minutes at 4° C. in RIPA-150 buffer (10 mM Tris pH 7.5, 150 mM NaCl, 10% glycerol, 5 mM EDTA, 1% Triton X-100, 0.1% SDS, 100 μM sodium orthovanadate, 1 μM aprotinin, 10 μM leupeptin, 10 μM antipain). Cell debris was pelleted at 13000 rpm for 15 minutes at 4° C. and the lysate was rocked overnight with 10 μg of either c-Raf or MEK antibodies (Santa Cruz Biotechnologies, Santa Cruz, Calif.). 25 μl of protein A/G PLUS agarose (Santa Cruz Biotechnology) was then added and rocked for 4 hours at 4° C. Samples were spun at 2000 rpm for 5 minutes to collect the agarose beads, which were then washed four times with lysis buffer. On the final wash each pellet was divided into 5. […]

Row | SMILES | Rap-1 activation (GTP-loaded Rap-1) [1] | also measured
1 | CO[C@@H]1[C@@H]2OP(=O)(O)OC[C@H]2O[C@H]1n1c(Sc2ccc(Cl)cc2)nc2c(N)ncnc21 [EPAC activator, 8-(4-chlorophenylthio)-2′-O-methyladenosine-3′,5′-cyclic monophosphate] | activated Rap-1 | 
2 | O=S(=O)(NCCNC/C=C/c1ccc(Br)cc1)c1cccc2cnccc12 [H89] | had no effect on Rap-1 activation | 
3 | Cc1ccc(OCC(O)C(C)NC(C)C)c2c1CCC2 (stereo not drawn) [ICI 118, 551] |  | effect of β2 antagonist on ARA-211 suppression of P-Erk 1/2 levels [2]: prevented ARA-211 from suppressing P-Erk 1/2 levels; effect of β2 AR antagonist on ARA-211 inhibition of tumor cell growth [3]: rescued human cancer cells from ARA-211 inhibition of tumor cell growth
4 | N#CC(=C(/N)Sc1ccccc1N)/C(C#N)=C(\N)Sc1ccccc1N [U-0126] |  | in vitro Mek-1 kinase activity [4]: blocked
5 | CC(C)NCC(O)c1ccc(O)c(O)c1 (stereo not drawn) [isoproterenol] | activated Rap-1 | 
